Laboratory results from ChEMBL document CHEMBL1201862, “PubChem BioAssay data set” (2004).
Calls of active or inactive are those of the source.

Columns and labels:
[1] = molecular target: Potassium voltage-gated channel subfamily KQT member 2 (Rattus norvegicus, UniProt O88943); test: KCNQ2 potassium channel inhibitors, dose response, cell-based, automated electrophysiology, set II, rat KCNQ2 (AID 588637); format: functional
[2] = control 3'UTR Renilla luciferase suppression, dose response, counter-screen for Shn3 inhibitor project, cell-based, Clone20-Shn3RL, cherry-picked (AID 624133); format: functional
[3] = Shn3 3'UTR reporter inhibitors, dose response, cell-based, Clone20 osteoblasts, firefly luciferase, cherry-picked (AID 624132); format: functional;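 also: firefly luciferase luminescence from reporter carrying the Shn3 3'UTR in osteoblasts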
[4] = HepG2 cell cytotoxicity, dose response, cytotoxicity control for Shn3 inhibitor project, CellTiter-Glo, cherry-picked (AID 624134); format: functional, cell-based
Protein Wnt-3a = Protein Wnt-3a (Mus musculus, UniProt P27467); test: Wnt3a-driven reporter signaling inhibition, dose response, selectivity assay for Gli-SUFU antagonist project, Wnt-LIGHT cells, luminescence (AID 651570); format: functional; conditions: read-out: IC50_Mean;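 also: Wnt-LIGHT reporter cells stimulated with conditioned medium from Wnt3a-producing cells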
[5] = (§1) Counterscreen for antagonists of the orexin 1 receptor (OX1R; HCRTR1): Fluorescence-based cell-based high throughput dose response assay to identify antagonists of the parental CHO cell line. [Related pubchem assays (depositor defined):AID434989, AID435008, AID463079, AID485270, AID492963, AID492964, AID492965, AID493232, AID504699, AID504701]; format: functional
CHO-K1 = test: as §1, with “Homogeneous time resolved fluorescence (HTRF)-based” for “Fluorescence-based”, “cell-based” for “cell-based high throughput”, “CHO-K1” for “CHO”; format: functional; conditions: Cricetulus griseus;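 also: potency for inhibition of ATP-stimulated IP1 production as antagonists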
Orexin receptor type 2 [6] = molecular target: T1, Orexin receptor type 2 (Homo sapiens, UniProt O43614); test: Counterscreen assay for antagonists of the orexin 1 receptor (OX1R; HCRTR1): Fluorescence-based cell-based dose response assay for antagonists of the orexin 2 receptor (OX2R; HCRTR2), run by assay provider.; format: functional
T1 sequence (O43614 whole entry): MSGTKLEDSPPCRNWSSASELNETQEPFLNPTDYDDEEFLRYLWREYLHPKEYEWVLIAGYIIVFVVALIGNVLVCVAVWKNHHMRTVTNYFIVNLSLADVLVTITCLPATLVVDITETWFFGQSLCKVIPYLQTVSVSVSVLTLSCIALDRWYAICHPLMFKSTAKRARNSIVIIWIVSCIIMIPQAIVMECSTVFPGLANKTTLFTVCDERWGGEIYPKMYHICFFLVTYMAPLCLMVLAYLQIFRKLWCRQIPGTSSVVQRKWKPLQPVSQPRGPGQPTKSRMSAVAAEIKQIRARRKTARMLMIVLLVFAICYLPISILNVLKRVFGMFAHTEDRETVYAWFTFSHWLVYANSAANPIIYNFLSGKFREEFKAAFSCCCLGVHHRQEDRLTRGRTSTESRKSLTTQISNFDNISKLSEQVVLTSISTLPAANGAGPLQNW

[7] = molecular target: T2, Orexin/Hypocretin receptor type 1 (Homo sapiens, UniProt O43613); test: Homogeneous Time Resolved Fluorescence (HTRF)-based cell-based high throughput dose response assay for antagonists of the orexin 1 receptor (OX1R; HCRTR1). [Related pubchem assays (depositor defined):AID434989, AID435008, AID463079, AID485270, AID492963, AID492964, AID492965, AID493232, AID504717, AID504718]; format: functional
T2 sequence (O43613 whole entry): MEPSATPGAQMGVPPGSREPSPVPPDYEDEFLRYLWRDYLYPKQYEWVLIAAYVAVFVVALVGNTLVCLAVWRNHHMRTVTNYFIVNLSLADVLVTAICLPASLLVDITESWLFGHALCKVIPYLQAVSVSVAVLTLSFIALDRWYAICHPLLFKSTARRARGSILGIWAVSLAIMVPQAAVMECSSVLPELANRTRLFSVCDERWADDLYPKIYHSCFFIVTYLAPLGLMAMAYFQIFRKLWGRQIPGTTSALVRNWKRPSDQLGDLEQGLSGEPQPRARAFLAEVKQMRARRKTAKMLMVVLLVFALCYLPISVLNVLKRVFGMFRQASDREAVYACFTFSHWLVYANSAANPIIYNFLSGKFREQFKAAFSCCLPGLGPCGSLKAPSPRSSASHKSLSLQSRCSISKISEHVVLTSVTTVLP

Orexin receptor type 2 [8] = molecular target: T1, Orexin receptor type 2; test: Counterscreen assay for antagonists of the orexin 1 receptor (OX1R; HCRTR1): Homogeneous Time Resolved Fluorescence (HTRF)-based cell-based dose response assay for antagonists of the orexin 2 receptor (OX2R; HCRTR2), run by assay provider.; format: functional
[9] = molecular target: T2, Orexin/Hypocretin receptor type 1; test: Fluorescence-based cell-based high throughput dose response assay for antagonists of the orexin 1 receptor (OX1R; HCRTR1). [Related pubchem assays (depositor defined):AID434989, AID435008, AID463079, AID485270, AID492963, AID492964, AID492965, AID493232, AID504717, AID504718]; format: functional
Melanocortin receptor 4 = Melanocortin receptor 4 (Homo sapiens, UniProt P32245); format: functional, cell-based;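 also: Cell-based assay with luminescence read-out, confirmatory dose-response testing for agonist activity of biased ligands at MC4R; human U2OS cells with tagged receptor and beta-arrestin; potency of agonists that increase receptor coupling to beta-arrestin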
[10] = molecular target: T3, Aryl hydrocarbon receptor (Homo sapiens, UniProt P35869); conditions: Potency;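 also: confirmatory quantitative high-throughput screen measuring activation of the AhR signaling pathway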
T3 sequence (P35869 whole entry): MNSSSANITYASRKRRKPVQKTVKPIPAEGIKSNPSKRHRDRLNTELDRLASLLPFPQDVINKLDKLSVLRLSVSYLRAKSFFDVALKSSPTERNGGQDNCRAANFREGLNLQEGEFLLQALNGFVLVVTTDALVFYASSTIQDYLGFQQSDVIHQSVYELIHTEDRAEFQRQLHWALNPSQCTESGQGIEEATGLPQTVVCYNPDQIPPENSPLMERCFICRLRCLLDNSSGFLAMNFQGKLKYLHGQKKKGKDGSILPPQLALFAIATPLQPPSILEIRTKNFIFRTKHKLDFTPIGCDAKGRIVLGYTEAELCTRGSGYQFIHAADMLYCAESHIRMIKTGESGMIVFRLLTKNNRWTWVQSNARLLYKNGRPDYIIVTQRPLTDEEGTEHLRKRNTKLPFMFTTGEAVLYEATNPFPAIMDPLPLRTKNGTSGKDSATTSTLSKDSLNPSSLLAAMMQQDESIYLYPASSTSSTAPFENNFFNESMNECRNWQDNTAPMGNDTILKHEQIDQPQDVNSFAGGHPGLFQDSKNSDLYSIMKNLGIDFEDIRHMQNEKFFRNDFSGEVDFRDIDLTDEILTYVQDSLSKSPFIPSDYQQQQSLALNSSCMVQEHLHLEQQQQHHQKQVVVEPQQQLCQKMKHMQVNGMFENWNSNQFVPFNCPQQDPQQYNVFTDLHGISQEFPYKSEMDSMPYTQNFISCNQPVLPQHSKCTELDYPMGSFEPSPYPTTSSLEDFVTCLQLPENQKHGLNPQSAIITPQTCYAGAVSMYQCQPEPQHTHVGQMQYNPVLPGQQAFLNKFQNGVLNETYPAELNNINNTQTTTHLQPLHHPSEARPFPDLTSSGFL

[11] = molecular target: Ras and Rab interactor 1/Tyrosine-protein kinase ABL1 (Homo sapiens, UniProt P00519+Q13671); format: functional;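 also: biochemical TR-FRET dose-response test measuring inhibition of binding between Rin1 and Abl proteins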
[12] = molecular target: Serine/threonine-protein kinase pim-1 (Homo sapiens, UniProt P11309); format: functional
[13] = molecular target: Casein kinase I isoform gamma-1 (Homo sapiens, UniProt Q9HCP0); format: functional;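 also: measured as the CSNK1G1 member of a kinome profiling panel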
[14] = molecular target: Dual specificity protein kinase CLK4 (Homo sapiens, UniProt Q9HAZ1); format: functional
[15] = molecular target: Cyclin-dependent kinase 7 (Homo sapiens, UniProt P50613); format: functional;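 also: value comes from a kinome-wide kinase profiling panel in which CDK7 is one member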
[16] = molecular target: Cyclin-dependent kinase 9 (Homo sapiens, UniProt P50750); format: functional;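 also: value from the CDK9 entry of a kinome-spanning kinase panel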
[17] = molecular target: Cell division cycle 7-related protein kinase (Homo sapiens, UniProt O00311); format: functional;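 also: value obtained from a kinome-wide kinase panel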
[18] = molecular target: Adenosylmethionine-8-amino-7-oxononanoate aminotransferase (Mycobacterium tuberculosis, UniProt P9WQ81); test: Mycobacterium tuberculosis BioA enzyme inhibitor Measured in Biochemical System Using Plate Reader - 2163-02_Inhibitor_Dose_CherryPick_Activity.; format: functional, Mycobacterium tuberculosis UT205
Hexokinase = Hexokinase (Trypanosoma brucei, UniProt Q38C41); test: Confirmation assay for inhibitors of Trypanosoma brucei hexokinase 1-Analogue-first series. [Related pubchem assays (depositor defined):AID1430, AID1632, AID2516, AID2560, AID2579, AID2600, AID449725, AID492951]; format: functional
Beta Lactamase = Beta Lactamase (Pseudomonas aeruginosa, UniProt Q932Y6); test: beta-lactamase reporter inhibitor potency, dose response, artefact control for TLR9-MyD88 binding inhibitor project, BLA reporter cells, FRET fluorescence (AID 588341); format: cell-based;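 also: cell based assay in CHO-K1 cells stably expressing beta-lactamase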
CHO = test: cytotoxicity in TLR9-MyD88 CHO cells, dose response, cytotoxicity control for TLR9-MyD88 binding inhibitor project, cell-based, luminescence (AID 588339); format: functional, hamster; conditions: Cricetulus griseus;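 also: CHO cells stably coexpressing TLR9 and MyD88 fusions from primary screen; compound exposure lasted 48 hours before viability readout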
[19] = molecular target: Mitochondrial peptide methionine sulfoxide reductase (Bos taurus, UniProt P54149); test: Absorbance-based biochemical high throughput dose response assay for activators of Methionine sulfoxide reductase A (MsrA).; format: functional
[20] = molecular target: Glucose-6-phosphate 1-dehydrogenase (Homo sapiens, UniProt P11413); test: human G6PD enzyme inhibitors, dose response, selectivity assay for P. falciparum G6PD inhibitor project, biochemical, fluorescence (AID 504792); format: functional
[21] = molecular target: T4, Probable nicotinate-nucleotide adenylyltransferase (Staphylococcus aureus (strain N315), UniProt P65502); format: functional, Staphylococcus aureus subsp. aureus N315; conditions: read-out: IC50_Mean;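 as to IC50 Mean: confirmatory dose-response retesting of NadD inhibitor hits first found in an ultra-high-throughput screen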
[22] = molecular target: T4, Probable nicotinate-nucleotide adenylyltransferase; format: functional, Staphylococcus aureus subsp. aureus N315
[23] = AlphaScreen signal interference compounds, dose response, artefact control for ARNT-TACC3 interaction inhibitor project, biochemical, luminescence, cherry-pick (AID 651705); format: functional;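 also: AlphaScreen bead proximity signal that flags compounds interfering with the detection technology; potency reflects signal decrease which marks the compound as an assay artifact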
[24] = molecular target: Rho-associated protein kinase 1 (Homo sapiens, UniProt Q13464); format: functional;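 also: measured within a broad kinome-wide panel profiling many kinases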
Interleukin-8 [25] = molecular target: T5, Interleukin-8 (Homo sapiens, UniProt P10145); test: Dose Response confirmation of uHTS small molecule hits for cystic fibrosis induced NFkb Inhibitors in a PAF-induced IL8 counterscreen.; format: functional; conditions: read-out: IC50_Mean
Interleukin-8 [26] = molecular target: T5, Interleukin-8; test: Dose Response confirmation of uHTS small molecule hits for cystic fibrosis induced NFkb Inhibitors in a TNFa-induced IL8 counterscreen.; format: functional; conditions: read-out: IC50_Mean
[27] = molecular target: Photoreceptor-specific nuclear receptor (Homo sapiens, UniProt Q9Y5X4); format: functional, cell-based;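 also: CHO-S cells with Gal4-NCOR and VP16-NR2E3 two-hybrid luciferase reporter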

Sequence of Dual specificity protein kinase CLK4 (Q9HAZ1 whole entry): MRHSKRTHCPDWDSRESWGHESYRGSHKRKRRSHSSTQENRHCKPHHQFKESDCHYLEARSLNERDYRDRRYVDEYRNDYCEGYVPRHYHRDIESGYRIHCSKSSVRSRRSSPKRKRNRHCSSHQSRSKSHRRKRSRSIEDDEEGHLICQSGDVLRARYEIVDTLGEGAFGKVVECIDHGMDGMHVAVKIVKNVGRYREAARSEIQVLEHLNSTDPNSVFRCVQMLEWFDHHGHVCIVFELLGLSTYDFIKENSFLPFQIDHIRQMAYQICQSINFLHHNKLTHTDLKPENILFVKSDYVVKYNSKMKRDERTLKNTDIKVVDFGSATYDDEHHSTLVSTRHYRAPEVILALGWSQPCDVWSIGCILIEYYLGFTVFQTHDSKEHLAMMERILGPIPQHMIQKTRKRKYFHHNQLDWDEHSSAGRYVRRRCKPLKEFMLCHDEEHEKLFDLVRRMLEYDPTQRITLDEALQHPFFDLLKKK
T4 sequence (P65502 whole entry): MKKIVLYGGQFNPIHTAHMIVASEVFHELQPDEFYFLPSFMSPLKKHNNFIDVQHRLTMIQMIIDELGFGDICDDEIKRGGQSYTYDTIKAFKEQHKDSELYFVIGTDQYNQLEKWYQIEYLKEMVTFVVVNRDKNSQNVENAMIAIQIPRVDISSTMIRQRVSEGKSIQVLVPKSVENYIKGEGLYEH
T5 sequence (P10145 whole entry): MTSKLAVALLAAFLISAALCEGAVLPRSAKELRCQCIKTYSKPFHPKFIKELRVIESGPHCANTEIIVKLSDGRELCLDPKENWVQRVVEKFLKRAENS
Sequence of Cyclin-dependent kinase 9 (P50750 whole entry): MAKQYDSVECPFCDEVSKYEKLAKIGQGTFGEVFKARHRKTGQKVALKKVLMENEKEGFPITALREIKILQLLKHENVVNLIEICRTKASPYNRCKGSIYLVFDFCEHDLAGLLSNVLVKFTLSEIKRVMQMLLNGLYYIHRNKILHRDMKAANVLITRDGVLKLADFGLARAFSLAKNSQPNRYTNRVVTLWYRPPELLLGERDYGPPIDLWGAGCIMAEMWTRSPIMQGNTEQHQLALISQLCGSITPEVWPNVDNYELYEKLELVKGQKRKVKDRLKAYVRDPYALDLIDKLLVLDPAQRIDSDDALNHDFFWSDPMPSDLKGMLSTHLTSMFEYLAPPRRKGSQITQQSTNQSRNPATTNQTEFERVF
Sequence of Potassium voltage-gated channel subfamily KQT member 2 (O88943 whole entry): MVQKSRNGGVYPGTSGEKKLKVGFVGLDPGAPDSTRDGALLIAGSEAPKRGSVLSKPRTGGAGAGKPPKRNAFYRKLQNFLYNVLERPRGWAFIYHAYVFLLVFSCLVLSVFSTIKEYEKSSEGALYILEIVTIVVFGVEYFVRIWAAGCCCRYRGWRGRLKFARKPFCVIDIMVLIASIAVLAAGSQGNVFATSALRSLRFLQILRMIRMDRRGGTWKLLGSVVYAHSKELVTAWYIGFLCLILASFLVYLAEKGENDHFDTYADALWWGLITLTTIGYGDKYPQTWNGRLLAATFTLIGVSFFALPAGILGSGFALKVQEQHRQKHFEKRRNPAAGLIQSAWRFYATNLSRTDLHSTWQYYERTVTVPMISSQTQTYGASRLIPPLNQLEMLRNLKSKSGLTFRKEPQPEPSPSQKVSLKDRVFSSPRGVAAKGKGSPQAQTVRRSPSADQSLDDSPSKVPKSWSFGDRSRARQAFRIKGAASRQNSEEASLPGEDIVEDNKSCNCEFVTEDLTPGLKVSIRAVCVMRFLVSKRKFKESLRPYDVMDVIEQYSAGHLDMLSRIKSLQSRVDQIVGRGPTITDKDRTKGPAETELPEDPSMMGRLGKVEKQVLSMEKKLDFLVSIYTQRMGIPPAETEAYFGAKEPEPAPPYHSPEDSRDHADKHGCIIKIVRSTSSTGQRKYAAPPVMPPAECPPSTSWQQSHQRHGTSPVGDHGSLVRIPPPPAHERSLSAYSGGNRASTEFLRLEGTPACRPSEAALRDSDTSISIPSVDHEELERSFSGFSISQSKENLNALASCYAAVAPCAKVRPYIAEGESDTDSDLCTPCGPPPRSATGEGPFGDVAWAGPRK
Sequence of Casein kinase I isoform gamma-1 (Q9HCP0 whole entry, canonical isoform): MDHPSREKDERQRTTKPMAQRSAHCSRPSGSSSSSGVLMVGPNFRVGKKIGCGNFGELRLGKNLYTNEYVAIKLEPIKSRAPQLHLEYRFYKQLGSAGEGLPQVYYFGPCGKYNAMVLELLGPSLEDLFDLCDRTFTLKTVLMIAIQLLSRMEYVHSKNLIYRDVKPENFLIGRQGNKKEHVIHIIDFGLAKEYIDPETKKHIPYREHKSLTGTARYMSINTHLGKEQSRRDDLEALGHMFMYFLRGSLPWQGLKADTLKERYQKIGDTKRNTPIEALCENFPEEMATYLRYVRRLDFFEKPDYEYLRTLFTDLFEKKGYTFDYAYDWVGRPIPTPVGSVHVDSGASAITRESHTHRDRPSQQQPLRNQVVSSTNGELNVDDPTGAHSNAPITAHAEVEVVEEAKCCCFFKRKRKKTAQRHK
Sequence of Cell division cycle 7-related protein kinase (O00311 whole entry): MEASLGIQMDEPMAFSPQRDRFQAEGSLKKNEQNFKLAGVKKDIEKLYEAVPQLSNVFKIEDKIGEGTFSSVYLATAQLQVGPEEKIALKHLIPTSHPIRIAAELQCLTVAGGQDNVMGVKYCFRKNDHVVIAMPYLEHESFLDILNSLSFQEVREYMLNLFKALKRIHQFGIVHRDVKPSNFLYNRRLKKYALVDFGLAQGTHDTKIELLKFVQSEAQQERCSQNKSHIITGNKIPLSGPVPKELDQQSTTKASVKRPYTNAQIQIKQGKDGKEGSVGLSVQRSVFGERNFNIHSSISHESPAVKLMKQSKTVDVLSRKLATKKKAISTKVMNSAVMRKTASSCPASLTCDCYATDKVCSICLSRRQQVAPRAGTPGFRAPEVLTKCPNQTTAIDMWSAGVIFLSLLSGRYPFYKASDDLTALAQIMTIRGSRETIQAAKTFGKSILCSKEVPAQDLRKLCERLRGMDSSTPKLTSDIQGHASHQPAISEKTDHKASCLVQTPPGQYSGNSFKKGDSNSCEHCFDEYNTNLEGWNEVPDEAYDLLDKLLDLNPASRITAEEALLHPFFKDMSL
Sequence of Cyclin-dependent kinase 7 (P50613 whole entry): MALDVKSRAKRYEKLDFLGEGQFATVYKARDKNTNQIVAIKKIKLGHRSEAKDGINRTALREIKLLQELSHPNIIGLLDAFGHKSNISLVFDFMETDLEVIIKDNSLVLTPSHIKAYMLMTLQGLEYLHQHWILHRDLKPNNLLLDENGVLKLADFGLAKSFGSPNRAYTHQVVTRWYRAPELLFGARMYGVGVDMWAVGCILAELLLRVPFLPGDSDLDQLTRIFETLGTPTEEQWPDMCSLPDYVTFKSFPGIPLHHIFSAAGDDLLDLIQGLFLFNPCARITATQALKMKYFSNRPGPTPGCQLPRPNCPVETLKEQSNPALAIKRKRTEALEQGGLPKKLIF
Sequence of Rho-associated protein kinase 1 (Q13464 whole entry): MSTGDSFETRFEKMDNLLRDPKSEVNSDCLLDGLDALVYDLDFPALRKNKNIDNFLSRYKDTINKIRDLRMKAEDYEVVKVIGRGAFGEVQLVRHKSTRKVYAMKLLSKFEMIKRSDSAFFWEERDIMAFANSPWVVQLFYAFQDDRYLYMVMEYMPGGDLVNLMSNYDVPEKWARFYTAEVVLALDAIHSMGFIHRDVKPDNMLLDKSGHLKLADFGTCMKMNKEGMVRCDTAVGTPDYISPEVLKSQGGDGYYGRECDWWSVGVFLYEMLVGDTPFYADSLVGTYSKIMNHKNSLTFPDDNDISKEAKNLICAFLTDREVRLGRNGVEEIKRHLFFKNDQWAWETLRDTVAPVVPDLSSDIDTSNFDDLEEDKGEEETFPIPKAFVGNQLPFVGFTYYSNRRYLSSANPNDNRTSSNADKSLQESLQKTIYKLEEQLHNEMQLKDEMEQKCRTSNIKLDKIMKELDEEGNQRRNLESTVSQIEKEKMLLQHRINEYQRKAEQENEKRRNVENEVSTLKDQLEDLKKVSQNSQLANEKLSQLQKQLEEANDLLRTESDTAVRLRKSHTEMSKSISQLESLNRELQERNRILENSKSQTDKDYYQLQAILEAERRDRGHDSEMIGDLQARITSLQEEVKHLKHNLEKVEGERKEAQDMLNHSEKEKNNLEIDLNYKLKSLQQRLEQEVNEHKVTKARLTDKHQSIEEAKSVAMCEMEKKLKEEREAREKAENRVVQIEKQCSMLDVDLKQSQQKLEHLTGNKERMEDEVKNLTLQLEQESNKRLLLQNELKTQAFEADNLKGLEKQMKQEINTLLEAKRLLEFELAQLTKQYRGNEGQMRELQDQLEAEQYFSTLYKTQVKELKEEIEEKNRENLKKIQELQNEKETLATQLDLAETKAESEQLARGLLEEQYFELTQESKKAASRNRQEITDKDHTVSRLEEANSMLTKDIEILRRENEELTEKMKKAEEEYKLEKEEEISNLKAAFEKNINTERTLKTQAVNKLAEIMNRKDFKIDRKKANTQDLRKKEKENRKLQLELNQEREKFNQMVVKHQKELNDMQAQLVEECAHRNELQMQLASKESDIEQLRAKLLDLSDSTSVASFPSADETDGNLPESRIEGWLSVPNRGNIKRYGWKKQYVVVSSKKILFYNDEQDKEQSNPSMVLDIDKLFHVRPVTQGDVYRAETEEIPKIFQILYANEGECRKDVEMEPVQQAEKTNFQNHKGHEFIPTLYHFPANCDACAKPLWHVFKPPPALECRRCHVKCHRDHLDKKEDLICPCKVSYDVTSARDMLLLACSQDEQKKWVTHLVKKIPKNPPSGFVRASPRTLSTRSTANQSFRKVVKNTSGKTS
Sequence of Mitochondrial peptide methionine sulfoxide reductase (P54149 whole entry): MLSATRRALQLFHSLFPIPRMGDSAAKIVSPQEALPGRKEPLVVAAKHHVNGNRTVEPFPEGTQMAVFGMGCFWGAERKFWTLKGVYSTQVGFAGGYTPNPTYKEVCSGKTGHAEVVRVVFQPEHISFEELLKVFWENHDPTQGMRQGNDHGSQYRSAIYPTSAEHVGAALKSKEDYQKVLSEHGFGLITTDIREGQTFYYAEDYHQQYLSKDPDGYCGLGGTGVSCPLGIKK

With `O=C(CN1CCCc2ccccc21)NCCc1ccc(Cl)cc1` the IC50 [1] was 8.54 µM (active).
In the case of `Cc1ccc(S(=O)(=O)N2CCN(C(=O)C3CCN(c4ncnc5sc(C)c(C)c45)CC3)CC2)c(C)c1`, the AC50 [2] is reported as 1.43 µM (active), the AC50 [3] is reported as 2.12 µM (active) and the AC50 [4] is reported as 46 µM (active). For the same compound, the IC50 (Protein Wnt-3a) was 14.7 µM (active).
With `Cc1c(C(=O)OC(C)C(=O)N(C)Cc2ccccc2)oc2ccccc12` (stereo not given) the IC50 [5] was 43.3 µM (inactive), the IC50 (CHO-K1) was > 66.2 µM (inactive) and the IC50 (Orexin receptor type 2 [6]) was 9.6 µM (active). For the same compound, the IC50 [7] was 0.717 µM (active), the IC50 (Orexin receptor type 2 [8]) was 5.52 µM (active) and the IC50 [9] was 6.49 µM (active).
For `COc1ccccc1-c1cc(NC(C)=O)c2ncc(-c3ccccc3)n2c1`, the EC50 (Melanocortin receptor 4) was > 89.2 µM (inactive).
In the case of `Nc1ccc(/N=N/c2ccccc2)cc1`, the AC50 [10] is reported as 50.1 µM (inconclusive).
With `CCSCCO/C(O)=C1\C(C)=NC2=C(C(=O)CCC2)C1c1coc2ccccc2c1=O` (stereo not given) the IC50 [11] was > 73.5 µM (inactive).
For `O=C1CC(c2ccc(F)cc2)Cc2[nH]c3cc(Cl)ccc3c(=O)c21` (stereo not given), the Ki [12] was 3.98 µM (active), the Ki [13] was 3.98 µM (active) and the Ki [14] was 6.31 µM (active).
For `CCc1cc(C(=O)OCC(=O)N2CCC(c3ccccc3)=N2)sc1C`, the IC50 [5] was > 49.8 µM (inactive), the IC50 (CHO-K1) was > 66.2 µM (inactive) and the IC50 (Orexin receptor type 2 [6]) was > 88.8 µM (inactive). For the same compound, the IC50 [7] was 2.45 µM (active), the IC50 (Orexin receptor type 2 [8]) was > 50 µM (inactive) and the IC50 [9] was 3.47 µM (active).
With `COCCN(CCOC)c1nc(OC)cc(-c2c[nH]c3ncccc23)n1` the Ki [15] was > 2.51 µM (inactive), the Ki [16] was > 2.51 µM (inactive) and the Ki [17] was 0.1 µM (active).
In the case of `C=CCn1c(SCc2c(C(=O)OC)sc(N)c2C(=O)OC)nnc1-c1ccc(Br)cc1`, the AC50 [18] is reported as 0.233 µM (active).
For `O=c1c2cc([N+](=O)[O-])ccc2sn1-c1ccccc1`, the IC50 (Hexokinase) was > 25 µM (inactive), the IC50 (Beta Lactamase) was > 49.7 µM (inactive) and the IC50 (CHO) was 12.1 µM (inactive). The EC50 [19] was > 104 µM (inactive) and the IC50 [20] was 11.3 µM (active).
For `O=C1CC(=C2c3ccccc3-c3ccccc32)C(=O)N1CCN1CCN(c2cccc(Cl)c2)CC1`, the IC50 [21] was 26.6 µM (active) and the IC50 [22] was 13.5 µM (active).
For `Nn1c(SCC(=O)Nc2ccc3c(c2)OCCO3)nnc1-c1ccccn1`, the AC50 [23] was 107 µM (active).
With `Nc1nonc1-n1cc(CO)nn1` the Ki [24] was 39.8 µM (active) and the Ki [14] was 63.1 µM (active).
In the case of `COC(=O)N1C(=O)[C@@](c2ccc(OC)cc2)(C(C)C)N1C(=O)OC`, the IC50 (Interleukin-8 [25]) is reported as 2.4 µM (active) and the IC50 (Interleukin-8 [26]) is reported as 3.22 µM (active).
In the case of `Cc1ccc(CN2CC(C(=O)Nc3ncc(C)s3)CC2=O)cc1` (stereo not given), the IC50 [27] is reported as 1.26 µM (active).
